In patent US10975068B2, “6-aminopyridin-3-yl thiazoles as modulators of RORγT” (Janssen Pharmaceutica NV, priority 2016, dated 2021):
Where two headings read alike, the source gives them in different places. Marks after values point to notes of the source that are not given here.

Key:
[1] = biological target: human RORγt ligand binding domain (RORγt LBD) (Homo sapiens (Human), UniProt P51449); experiment: RORγt ThermoFluor® assay (thermal shift binding)
Procedure, shortened: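 Binding was inferred from thermal stabilisation (ΔTm) of the E. coli-expressed RORγt LBD (0.065 mg/mL), monitored by 1,8-ANS (60 μM) emission at 500 nm during a 1 °C/min ramp. Buffer was Hepes 100 mM pH 7.0 with NaCl, GSH and Tween-20.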

full-length human RORγt = full-length human RORγt (Homo sapiens (Human), UniProt P51449); experiment: RORγt (full-length human) reporter assay, Conditions B or C; assay type: cell-based; conditions: for inhibition at 6 µM: read-out: RORγt (FL) Reporter Assay B or C, % inhibition @ 6 μM, Conditions B or C; for RORγt (FL) Reporter Assay B or C, % inhibition (value marked *): marked *: footnote not given
Chain of full-length human RORγt (P51449 other isoform, or with tags, fused parts or gaps): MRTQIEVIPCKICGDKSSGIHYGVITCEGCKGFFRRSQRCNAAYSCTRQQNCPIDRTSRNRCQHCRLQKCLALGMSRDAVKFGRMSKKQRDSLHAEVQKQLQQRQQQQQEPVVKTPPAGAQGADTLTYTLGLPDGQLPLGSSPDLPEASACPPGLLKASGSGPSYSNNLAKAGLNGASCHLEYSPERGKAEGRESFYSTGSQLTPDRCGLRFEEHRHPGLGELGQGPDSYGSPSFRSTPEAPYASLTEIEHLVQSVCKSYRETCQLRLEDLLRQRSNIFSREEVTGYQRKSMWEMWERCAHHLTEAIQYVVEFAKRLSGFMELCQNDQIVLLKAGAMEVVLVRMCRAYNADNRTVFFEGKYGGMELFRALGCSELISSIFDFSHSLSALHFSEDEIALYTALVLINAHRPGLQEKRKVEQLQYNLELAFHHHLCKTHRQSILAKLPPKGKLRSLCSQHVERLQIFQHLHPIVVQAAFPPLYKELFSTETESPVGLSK
Procedure, shortened: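 Readout is dual luciferase: firefly (GAL4-driven) normalized to DMSO-only and saturating-reference controls, then to CMV-Renilla. Full-length human RORγt fused to GAL4-DBD was transiently expressed in HEK293T; compound exposure ran overnight (16-20 h) starting 4-6 h after transfection, final FBS 1.3%, DMSO 0.1%.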

[2] = read-out: ThermoFluor® Assay, Kd
[3] = Conditions B or C, read-out: RORγt (FL) Reporter Assay B or C, IC50
[4] = at 3 μM compound concentration, read-out: RORγt (FL) Reporter Assay B or C, % inhibition
[5] = read-out: RORγt (FL) Reporter Assay B or C, IC50

Chain of human RORγt ligand binding domain (RORγt LBD) (P51449 other isoform, or with tags, fused parts or gaps): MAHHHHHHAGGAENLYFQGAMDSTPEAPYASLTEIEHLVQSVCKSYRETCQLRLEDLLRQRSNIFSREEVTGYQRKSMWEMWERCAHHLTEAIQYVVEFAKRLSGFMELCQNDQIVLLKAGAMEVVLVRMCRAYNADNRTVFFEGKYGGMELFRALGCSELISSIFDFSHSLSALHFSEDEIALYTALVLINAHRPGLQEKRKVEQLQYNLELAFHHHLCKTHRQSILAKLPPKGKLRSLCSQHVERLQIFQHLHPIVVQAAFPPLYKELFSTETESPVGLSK

Kd [1, 2] | IC50 (full-length human RORγt; [3]) | inhibition at 3 µM (full-length human RORγt; [4]) | IC50 (full-length human RORγt; [5]) | RORγt (FL) Reporter Assay B or C, % inhibition (value marked *) (full-length human RORγt; Conditions B or C) | SMILES | other results
1.7 nM | 0.016 µM | – | – | – | C[C@H]1CCCN1C(=O)c1nc(C(=O)NCC(C)(C)O)sc1-c1cnc(N[C@H]2CCCCC2(F)F)cc1C(F)(F)F (relative stereo) [Example 36, 5-(6-(((S*)-2,2-Difluorocyclohexyl)amino)-4-(trifluoromethyl)pyridin-3-yl)-N-(2-hydroxy-2-methylpropyl)-4-((S)-2-methylpyrrolidine-1-carbonyl)thiazole-2-carboxamide] | inhibition at 6 µM (full-length human RORγt): 116%
49 nM | – | 86% | > 3 µM | – | C[C@H]1CCCN1C(=O)c1nc(C(=O)NCc2n[nH]c(=O)[nH]2)sc1-c1cnc(NC(C)(C)C)cc1C(F)(F)F [Example 302, (S)-5-(6-(tert-Butylamino)-4-(trifluoromethyl)pyridin-3-yl)-4-(2-methylpyrrolidine-1-carbonyl)-N-((5-oxo-4,5-dihydro-1H-1,2,4-triazol-3-yl)methyl)thiazole-2-carboxamide] | –
3.2 nM | 0.019 µM | – | – | 109* % | CC[C@H](Nc1cc(C(F)F)c(-c2sc(C(=O)N[C@@H](C)[C@H](C)O)nc2C(=O)N2CCC[C@@H]2C)cn1)C(F)(F)F (relative stereo) [Example 217, 5-(4-(Difluoromethyl)-6-(((S)-1,1,1-trifluorobutan-2-yl)amino)pyridin-3-yl)-N-((2S*,3S*)-3-hydroxybutan-2-yl)-4-((S)-2-methylpyrrolidine-1-carbonyl)thiazole-2-carboxamide] | –
1.1 nM | – | 103% | 0.038 µM | – | CC[C@H](Nc1cc(C(F)F)c(-c2sc(C(=O)N[C@H](C)CO)nc2C(=O)N2CC(F)(F)C[C@@H]2C)cn1)C(F)(F)F [Example 423, 4-[(2S)-4,4-Difluoro-2-methyl-pyrrolidine-1-carbonyl]-5-[4-(difluoromethyl)-6-[[(1S)-1-(trifluoromethyl)propyl]amino]-3-pyridyl]-N-[(1R)-2-hydroxy-1-methyl-ethyl]thiazole-2-carboxamide] | –
5.1 nM | – | 98% | 0.31 µM | – | C[C@H]1CCCN1C(=O)c1nc(C(=O)N[C@H](C)C(C)(C)O)sc1-c1cnc(NCC(C)(C)C)cc1C(F)F [Example 343, 5-[4-(Difluoromethyl)-6-(2,2-dimethylpropylamino)-3-pyridyl]-N-[(1R)-2-hydroxy-1,2-dimethyl-propyl]-4-[(2S)-2-methylpyrrolidine-1-carbonyl]thiazole-2-carboxamide] | –
32 nM | 0.19 µM | – | – | 89* % | C[C@H](Nc1cc(C(F)F)c(-c2sc(C(=O)N[C@@H]3C[C@H]3O)nc2C(=O)N2CCC[C@@H]2C)cn1)C(F)(F)F (single isomer, unassigned) [Example 157, 5-(4-(Difluoromethyl)-6-(((S)-1,1,1-trifluoropropan-2-yl)amino)pyridin-3-yl)-N-((1R*,2R*)-2-hydroxycyclopropyl)-4-((S)-2-methylpyrrolidine-1-carbonyl)thiazole-2-carboxamide] | –
6.7 nM | – | 107% | 0.012 µM | – | CC[C@H](Nc1cc(C(F)F)c(-c2sc(C(=O)N[C@@H]3CC[C@@H]3O)nc2C(=O)N2CCC[C@@H]2C)cn1)C(F)(F)F (relative stereo) [Example 381, 5-(4-(Difluoromethyl)-6-(((S)-1,1,1-trifluorobutan-2-yl)amino)pyridin-3-yl)-N-((1R*,2S*)-2-hydroxycyclobutyl)-4-((S)-2-methylpyrrolidine-1-carbonyl)thiazole-2-carboxamide] | –
0.64 nM | 0.027 µM | – | – | 109* % | C[C@H]1CC(F)(F)CN1C(=O)c1nc(C(=O)N[C@H](C)C(C)(C)O)sc1-c1cnc(NC2(C)CCC2)cc1C(F)(F)F [Example 196, 4-((S)-4,4-Difluoro-2-methylpyrrolidine-1-carbonyl)-N—((R)-3-hydroxy-3-methylbutan-2-yl)-5-(6-((1-methhylcyclobutyl)amino)-4-(trifluoromethyl)pyridine-3-yl)thiazole-2-carboxamide] | –
3.8 nM | 0.034 µM | – | – | 104* % | C[C@H](Nc1cc(C(F)F)c(-c2sc(C(=O)N[C@H]3COC[C@@H]3O)nc2C(=O)N2CC(F)(F)C[C@@H]2C)cn1)C(F)(F)F [Example 190] | –
1.7 nM | – | 110% | 0.0075 µM | – | C[C@H]1CCCN1C(=O)c1nc(C(=O)N2CC3(COC3)C2)sc1-c1cnc(NC(C)(C)C)cc1C(F)(F)F [Example 368, [5-[6-(tert-Butylamino)-4-(trifluoromethyl)-3-pyridyl]-2-(6-oxa-2-azaspiro[3.3]heptane-2-carbonyl)thiazol-4-yl]-[(2S)-2-methylpyrrolidin-1-yl]methanone] | –
0.15 nM | 0.0045 µM | – | – | – | C[C@H]1CCCCN1C(=O)c1nc(C(=O)NCC(C)(C)O)sc1-c1cnc(N[C@@H]2CCCCC2(F)F)cc1C(F)(F)F (relative stereo) [Example 31, 5-(6-(((R*)-2,2-Difluorocyclohexyl)amino)-4-(trifluoromethyl)pyridin-3-yl)-N-(2-hydroxy-2-methylpropyl)-4-((S)-2-methylpiperidine-1-carbonyl)thiazole-2-carboxamide] | inhibition at 6 µM (full-length human RORγt): 111%
8.7 nM | – | 92% | 0.036 µM | – | C[C@H]1CCCN1C(=O)c1nc(C(=O)N[C@H]2C[C@H](O)C2)sc1-c1cnc(N[C@@H](C2CC2)C(F)(F)F)cc1C(F)F [Example 310, 5-(6-(((S)-1-Cyclopropyl-2,2,2-trifluoroethyl)amino)-4-(difluoromethyl)pyridin-3-yl)-N-((1r,3S)-3-hydroxycyclobutyl)-4-((S)-2-methylpyrrolidine-1-carbonyl)thiazole-2-carboxamide] | –
– | – | – | – | – | C[C@H](Nc1cc(C(F)(F)F)c(-c2sc(C(=O)N[C@H]3COC[C@H]3O)nc2C(=O)N2C3CCC2CC3)cn1)C(F)(F)F (single isomer, unassigned) [Example 255, 4-((1s,4s)-7-Azabicyclo[2.2.1]heptane-7-carbonyl)-N-((3S*,4S*)-4-hydroxytetrahydrofuran-3-yl)-5-(4-(trifluoromethyl)-6-(((S)-1,1,1-trifluoropropan-2-yl)amino)pyridin-3-yl)thiazole-2-carboxamide] | Kd ([1]; ThermoFluor® Assay, Kd): 16 nM; IC50 (full-length human RORγt; RORγt (FL) Reporter Assay B or C, IC50): 0.16 µM; inhibition at 1 µM (full-length human RORγt; at 1 μM compound concentration, read-out: RORγt (FL) Reporter Assay B or C, % inhibition): 78%
7.7 nM | – | – | 0.14 µM | – | C[C@H](Nc1cc(C(F)F)c(-c2sc(C(=O)NC3CCC3O)nc2C(=O)N2CCC[C@@H]2C)cn1)C(F)(F)F (stereo partly drawn) [Example 389, 5-(4-(Difluoromethyl)-6-(((S)-1,1,1-trifluoropropan-2-yl)amino)pyridin-3-yl)-N-(cis-2-hydroxycyclobutyl)-4-((S)-2-methylpyrrolidine-1-carbonyl)thiazole-2-carboxamide] | RORγt (FL) Reporter Assay B or C, % inhibition (full-length human RORγt; at 3 μM compound concentration): 90* %
6.1 nM | 0.013 µM | – | – | – | CC[C@H](Nc1cc(C(F)F)c(-c2sc(C(=O)N[C@@H]3COC[C@H]3O)nc2C(=O)N2CCC[C@@H]2C)cn1)C(F)(F)F [Example 220, 5-(4-(Difluoromethyl)-6-(((1S)-1-(trifluoromethyl)propyl)amino)-3-pyridyl)-N-((3R,4S)-4-hydroxytetrahydrofuran-3-yl)-4-((2S)-2-methylpyrrolidine-1-carbonyl)thiazole-2-carboxamide] | RORγt (FL) Reporter Assay B or C, % inhibition (value marked *****) (full-length human RORγt; Conditions B or C, marked *****: footnote not shown): 111***** %
1.9 nM | 0.013 µM | – | – | 105* % | C[C@H]1CCCN1C(=O)c1nc(C(=O)NCC(C)(C)O)sc1-c1cnc(NC2(C(F)(F)F)CCC2)cc1C(F)F [Example 123, (S)-5-(4-(Difluoromethyl)-6-((1-(trifluoromethyl)cyclobutyl)amino)pyridin-3-yl)-N-(2-hydroxy-2-methylpropyl)-4-(2-methylpyrrolidine-1-carbonyl)thiazole-2-carboxamide] | –
0.43 nM | 0.0052 µM | – | – | – | CC(Nc1cc(C(F)(F)F)c(-c2sc(C(=O)NCC(C)(C)O)nc2C(=O)N2CCCC[C@@H]2C)cn1)C(F)(F)F (stereo partly drawn) [Example 33, N-(2-Hydroxy-2-methylpropyl)-4-((S)-2-methylpiperidine-1-carbonyl)-5-(4-(trifluoromethyl)-6-((1,1,1-trifluoropropan-2-yl)amino)pyridin-3-yl)thiazole-2-carboxamide] | inhibition at 6 µM (full-length human RORγt): 109%

SMILES | Kd [1, 2] | IC50 (full-length human RORγt; [3]) | inhibition at 3 µM (full-length human RORγt; [4]) | IC50 (full-length human RORγt; [5]) | RORγt (FL) Reporter Assay B or C, % inhibition (value marked *) (full-length human RORγt; Conditions B or C) | other results
C[C@H](Nc1cc(C(F)(F)F)c(-c2sc(C(=O)N[C@@H]3COC[C@H]3O)nc2C(=O)N2C3CCC2CC3)cn1)C(F)(F)F [Example 150, 4-((1s,4s)-7-Azabicyclo[2.2.1]heptane-7-carbonyl)-N-((3R,4S)-4-hydroxytetrahydrofuran-3-yl)-5-(4-(trifluoromethyl)-6-(((1S)-2,2,2-trifluoro-1-methyl-ethyl)amino)-3-pyridyl)thiazole-2-carboxamide] | 3.2 nM | – | – | – | 111* % | IC50 (full-length human RORγt; RORγt (FL) Reporter Assay B or C, IC50 (μM), Conditions B or C): 0.035 µM
